These molecules were tested against benzodiazepine binding site on GABAA receptors (assay: In vitro inhibition of 3H-flunitrazepam (3H-FNM) binding). Conditions: inhibition of specific binding of 3H-FNM (1 nM), cerebral cortex membranes from male Wistar rats, 40 min at 2° C.
Parameters: species or system rat
Method: In Vitro Inhibition of ^3H-flunitrazepam (^3H-FNM) Binding
The GABA recognition site and the benzodiazepine modulatory unit can selectively be labelled with ^3H-flunitrazepam.
Preparations are performed at 0-4° C. unless otherwise indicated. Cerebral cortex from male Wistar rats (150-200 g) is homogenised for 5-10 sec in 20 ml Tris-HCl (30 mM, pH 7.4) using an Ultra-Turrax homogeniser. The suspension is centrifuged at 27,000×g for 15 min and the pellet is washed three times with buffer (centrifuged at 27,000×g for 10 min). The washed pellet is homogenized in 20 ml of buffer and incubated on a water bath (37° C.) for 30 min to remove endogenous GABA and then centrifuged for 10 min at 27,000×g. The pellet is then homogenized in buffer and centrifuged for 10 min at 27,000×g. The final pellet is resuspended in 30 ml buffer and the preparation is frozen and stored at −20° C.
The membrane preparation is thawed and centrifuged at 2° C. for 10 min at 27,000×g. The pellet is washed twice with 20 ml 50 mM Tris-citrate, pH 7.1 using an Ultra-Turrax homogeniser and centrifuged for 10 min at 27,000×g. The final pellet is resuspended in 50 mM Tris-citrate, pH 7.1 (500 ml buffer per g of original tissue), and then used for binding assays. Aliquots of 0.5 ml tissue are added to 25 μl of test solution and 25 μl of ^3H-FNM (1 nM, final concentration), mixed and incubated for 40 min at 2° C. Non-specific binding is determined using Clonazepam (1 μM, final concentration). After incubation the samples are added 5 ml of ice-cold buffer and poured directly onto Whatman GF/C glass fibre filters under suction and immediately washed with 5 ml ice-cold buffer. The amount of radioactivity on the filters is determined by conventional liquid scintillation counting. Specific binding is total binding minus non-specific binding.
25-75% inhibition of specific binding must be obtained, before calculation of an IC50.
The test value will be given as IC50 (the concentration (μM) of the test substance which inhibits the specific binding of ^3H-FNM by 50%). IC50=(applied test substance concentration, […]

Compound | IC50 [nM]
O=CNCc1ccc2c(c1)ncn2-c1cccc(-c2nccs2)c1 [N-{1-[3-(Thiazol-2-yl)-phenyl]-1H-benzoimidazol-5-ylmethyl}-formamide] | 4.8
NCc1ccc2c(c1)ncn2-c1cccc(-c2nccs2)c1 [C-[1-(3-Thiazol-2-yl-phenyl)-1H-benzoimidazol-5-yl]-methylamine] | 11
CC(=O)NCc1ccc2c(c1)ncn2-c1cccc(-c2nccs2)c1 [N-[1-(3-Thiazol-2-yl-phenyl)-1H-benzoimidazol-5-ylmethyl]-acetamide] | 24

From US7851490B2, “Benzimidazole derivatives and their use for modulating the GABAA receptor complex” (Neurosearch A/S, priority 2005, dated 2010)
